Laboratory results published in ChEMBL document CHEMBL3045446, “In vitro antimicrobial and antimycobacterial activity of some chalcones and their derivatives” (2013).
Values after ≈ are worked out from the molar mass of the structure shown. Active and inactive are the calls of the source. No cut-off for these calls is given here.

Experiments:
[1] = test system: Mycobacterium tuberculosis; assay: Antituberculosis activity against Mycobacterium tuberculosis H37Rv assessed as growth inhibition after 12 to 28 days by L-J MIC method; assay type: functional; conditions: for MIC: Mycobacterium tuberculosis, H37Rv
Candida albicans [2] = assay: Antimicrobial activity against Candida albicans MTCC 183 assessed as growth inhibition after 48 hr by agar streak dilution method; assay type: functional; conditions: MTCC 183, 48 h
Aspergillus clavatus [3] = assay: Antimicrobial activity against Aspergillus clavatus MTCC 1323 assessed as growth inhibition after 48 hr by agar streak dilution method; assay type: functional; conditions: MTCC 1323, 48 h
Aspergillus fumigatus [4] = assay: Antimicrobial activity against Aspergillus fumigatus MTCC 343 assessed as growth inhibition after 48 hr by agar streak dilution method; assay type: functional; conditions: MTCC 343, 48 h
Aspergillus niger [5] = assay: Antimicrobial activity against Aspergillus niger MTCC 282 assessed as growth inhibition after 48 hr by agar streak dilution method; assay type: functional; conditions: MTCC 282, 48 h
Shigella flexneri [6] = assay: Antimicrobial activity against Shigella flexneri MTCC1457 assessed as growth inhibition after 24 hr by agar streak dilution method; assay type: functional; conditions: MTCC1457, 24 h
Proteus vulgaris [7] = assay: Antimicrobial activity against Proteus vulgaris MTCC 1771 assessed as growth inhibition after 24 hr by agar streak dilution method; assay type: functional; conditions: MTCC 1771, 24 h
Salmonella typhi [8] = assay: Antimicrobial activity against Salmonella enterica subsp. enterica serovar Typhi MTCC 733 assessed as growth inhibition after 24 hr by agar streak dilution method; assay type: functional; conditions: MTCC 733, 24 h
Klebsiella pneumoniae [9] = assay: Antimicrobial activity against Klebsiella pneumoniae MTCC 109 assessed as growth inhibition after 24 hr by agar streak dilution method; assay type: functional; conditions: MTCC 109, 24 h
Pseudomonas aeruginosa [10] = assay: Antimicrobial activity against Pseudomonas aeruginosa MTCC 741 assessed as growth inhibition after 24 hr by agar streak dilution method; assay type: functional; conditions: MTCC 741, 24 h
Escherichia coli [11] = assay: Antimicrobial activity against Escherichia coli MTCC 739 assessed as growth inhibition after 24 hr by agar streak dilution method; assay type: functional; conditions: MTCC 739, 24 h
Bacillus cereus [12] = assay: Antimicrobial activity against Bacillus cereus MTCC 430 assessed as growth inhibition after 24 hr by agar streak dilution method; assay type: functional; conditions: MTCC 430, 24 h
Staphylococcus aureus [13] = assay: Antimicrobial activity against Staphylococcus aureus MTCC 96 assessed as growth inhibition after 24 hr by agar streak dilution method; assay type: functional; conditions: MTCC 96, 24 h
Candida albicans [14] = assay: Antimicrobial activity against Candida albicans MTCC 183 assessed as diameter of growth inhibition zone after 48 hr; assay type: functional
Aspergillus clavatus [15] = assay: Antimicrobial activity against Aspergillus clavatus MTCC 1323 assessed as diameter of growth inhibition zone after 48 hr; assay type: functional
Aspergillus fumigatus [16] = assay: Antimicrobial activity against Aspergillus fumigatus MTCC 343 assessed as diameter of growth inhibition zone after 48 hr; assay type: functional
Aspergillus niger [17] = assay: Antimicrobial activity against Aspergillus niger MTCC 282 assessed as diameter of growth inhibition zone after 48 hr; assay type: functional
Shigella flexneri [18] = assay: Antimicrobial activity against Shigella flexneri MTCC1457 assessed as diameter of growth inhibition zone after 24 hr; assay type: functional
Proteus vulgaris [19] = assay: Antimicrobial activity against Proteus vulgaris MTCC 1771 assessed as diameter of growth inhibition zone after 24 hr; assay type: functional
Salmonella typhi [20] = assay: Antimicrobial activity against Salmonella enterica subsp. enterica serovar Typhi MTCC 733 assessed as diameter of growth inhibition zone after 24 hr; assay type: functional
Klebsiella pneumoniae [21] = assay: Antimicrobial activity against Klebsiella pneumoniae MTCC 109 assessed as diameter of growth inhibition zone after 24 hr; assay type: functional
Pseudomonas aeruginosa [22] = assay: Antimicrobial activity against Pseudomonas aeruginosa MTCC 741 assessed as diameter of growth inhibition zone after 24 hr; assay type: functional
Escherichia coli [23] = assay: Antimicrobial activity against Escherichia coli MTCC 739 assessed as diameter of growth inhibition zone after 24 hr; assay type: functional
Bacillus cereus [24] = assay: Antimicrobial activity against Bacillus cereus MTCC 430 assessed as diameter of growth inhibition zone after 24 hr; assay type: functional
Staphylococcus aureus [25] = assay: Antimicrobial activity against Staphylococcus aureus MTCC 96 assessed as diameter of growth inhibition zone after 24 hr; assay type: functional
Shigella flexneri [26] = assay: Antimicrobial activity against Shigella flexneri MTCC1457 assessed as growth inhibition at 100 ug/ml after 24 hr by agar streak dilution method; assay type: functional, organism-based
Escherichia coli [27] = assay: Antimicrobial activity against Escherichia coli MTCC 739 assessed as growth inhibition at 100 ug/ml after 24 hr by agar streak dilution method; assay type: functional, organism-based
Proteus vulgaris [28] = assay: Antimicrobial activity against Proteus vulgaris MTCC 1771 assessed as growth inhibition at 100 ug/ml after 24 hr by agar streak dilution method; assay type: functional, organism-based
Pseudomonas aeruginosa [29] = assay: Antimicrobial activity against Pseudomonas aeruginosa MTCC 741 assessed as growth inhibition at 100 ug/ml after 24 hr by agar streak dilution method; assay type: functional, organism-based
Staphylococcus aureus [30] = assay: Antimicrobial activity against Staphylococcus aureus MTCC 96 assessed as growth inhibition at 100 ug/ml after 24 hr by agar streak dilution method; assay type: functional, organism-based
Bacillus cereus [31] = assay: Antimicrobial activity against Bacillus cereus MTCC 430 assessed as growth inhibition at 100 ug/ml after 24 hr by agar streak dilution method; assay type: functional, organism-based

Structure (SMILES) | growth inhibition (GI) [1] [%] | MIC [1] [µg/mL] | MIC (Candida albicans [2]) [µg/mL] | MIC (Aspergillus clavatus [3]) [µg/mL] | MIC (Aspergillus fumigatus [4]) [µg/mL] | MIC (Aspergillus niger [5]) [µg/mL] | MIC (Shigella flexneri [6]) [µg/mL] | MIC (Salmonella typhi [8]) [µg/mL] | MIC (Klebsiella pneumoniae [9]) [µg/mL] | MIC (Escherichia coli [11]) [µg/mL] | MIC (Bacillus cereus [12]) [µg/mL] | MIC (Staphylococcus aureus [13]) [µg/mL] | diameter of the inhibition zone (DIZ) (Candida albicans [14]) [mm] | diameter of the inhibition zone (DIZ) (Aspergillus clavatus [15]) [mm] | diameter of the inhibition zone (DIZ) (Aspergillus fumigatus [16]) [mm] | diameter of the inhibition zone (DIZ) (Aspergillus niger [17]) [mm] | diameter of the inhibition zone (DIZ) (Shigella flexneri [18]) [mm] | diameter of the inhibition zone (DIZ) (Salmonella typhi [20]) [mm] | diameter of the inhibition zone (DIZ) (Klebsiella pneumoniae [21]) [mm] | diameter of the inhibition zone (DIZ) (Escherichia coli [23]) [mm] | also measured
Cc1ccc(-c2cc(-c3ccc(Nc4cc(=O)oc5ccccc45)cc3)nc(N)c2C#N)cc1 | 98 | 100 (≈ 225 µM) | 3.12 (≈ 7.02 µM) | 25 (≈ 56.2 µM) | 25 (≈ 56.2 µM) | 12.5 (≈ 28.1 µM) | 12.5 (≈ 28.1 µM) | 25 (≈ 56.2 µM) | 50 (≈ 112 µM) | 25 (≈ 56.2 µM) | 25 (≈ 56.2 µM) | 25 (≈ 56.2 µM) | 28 | 20 | 21 | 24 | 25 | 21 | 18 | 20 | MIC (Proteus vulgaris [7]): 12.5 µg/mL (≈ 28.1 µM); MIC (Pseudomonas aeruginosa [10]): 12.5 µg/mL (≈ 28.1 µM); diameter of the inhibition zone (DIZ) (Proteus vulgaris [19]): 24 mm; diameter of the inhibition zone (DIZ) (Pseudomonas aeruginosa [22]): 22 mm; diameter of the inhibition zone (DIZ) (Bacillus cereus [24]): 23 mm; diameter of the inhibition zone (DIZ) (Staphylococcus aureus [25]): 21 mm
COc1ccc(/C=C/C(=O)c2ccc(Nc3cc(=O)oc4ccccc34)cc2)cc1 | 96 | 250 (≈ 629 µM) | 100 (≈ 252 µM) | 50 (≈ 126 µM) | 100 (≈ 252 µM) | 50 (≈ 126 µM) | 100 (≈ 252 µM) | 100 (≈ 252 µM) | 100 (≈ 252 µM) | 50 (≈ 126 µM) | 100 (≈ 252 µM) | 100 (≈ 252 µM) | 16 | 18 | 16 | 20 | 15 | 14 | 16 | 18 | MIC (Proteus vulgaris [7]): 50 µg/mL (≈ 126 µM); MIC (Pseudomonas aeruginosa [10]): 100 µg/mL (≈ 252 µM); diameter of the inhibition zone (DIZ) (Proteus vulgaris [19]): 18 mm; diameter of the inhibition zone (DIZ) (Pseudomonas aeruginosa [22]): 16 mm; diameter of the inhibition zone (DIZ) (Bacillus cereus [24]): 13 mm; diameter of the inhibition zone (DIZ) (Staphylococcus aureus [25]): 15 mm
O=C(/C=C/c1ccccc1)c1ccc(Nc2cc(=O)oc3ccccc23)cc1 | 95 | 1000 (≈ 2720 µM) | 100 (≈ 272 µM) | 100 (≈ 272 µM) | 100 (≈ 272 µM) | 100 (≈ 272 µM) |  | 100 (≈ 272 µM) | 100 (≈ 272 µM) |  | 100 (≈ 272 µM) |  | <10 | 15 | 12 | <10 |  | 11 | <10 |  | growth inhibition (GI) (Shigella flexneri [26]): inactive; growth inhibition (GI) (Escherichia coli [27]): inactive; growth inhibition (GI) (Proteus vulgaris [28]): inactive; growth inhibition (GI) (Pseudomonas aeruginosa [29]): inactive; diameter of the inhibition zone (DIZ) (Bacillus cereus [24]): <10 mm; growth inhibition (GI) (Staphylococcus aureus [30]): inactive
Nc1nc(-c2ccc(Cl)cc2)cc(-c2ccc(Nc3cc(=O)oc4ccccc34)cc2)n1 | 97 | 200 (≈ 454 µM) | 12.5 (≈ 28.4 µM) | 50 (≈ 113 µM) | 25 (≈ 56.7 µM) | 50 (≈ 113 µM) | 25 (≈ 56.7 µM) | 25 (≈ 56.7 µM) | 12.5 (≈ 28.4 µM) | 50 (≈ 113 µM) | 50 (≈ 113 µM) | 50 (≈ 113 µM) | 21 | 17 | 19 | 17 | 21 | 20 | 22 | 18 | MIC (Proteus vulgaris [7]): 12.5 µg/mL (≈ 28.4 µM); MIC (Pseudomonas aeruginosa [10]): 100 µg/mL (≈ 227 µM); diameter of the inhibition zone (DIZ) (Proteus vulgaris [19]): 23 mm; diameter of the inhibition zone (DIZ) (Pseudomonas aeruginosa [22]): 16 mm; diameter of the inhibition zone (DIZ) (Bacillus cereus [24]): 19 mm; diameter of the inhibition zone (DIZ) (Staphylococcus aureus [25]): 20 mm
Nc1nc(-c2ccc(Nc3cc(=O)oc4ccccc34)cc2)cc(-c2ccccc2O)n1 | 97 | 250 (≈ 592 µM) | 50 (≈ 118 µM) | 6.25 (≈ 14.8 µM) | 12.5 (≈ 29.6 µM) | 25 (≈ 59.2 µM) | 25 (≈ 59.2 µM) | 100 (≈ 237 µM) | 12.5 (≈ 29.6 µM) | 50 (≈ 118 µM) | 50 (≈ 118 µM) | 50 (≈ 118 µM) | 18 | 25 | 23 | 21 | 20 | 17 | 21 | 19 | MIC (Proteus vulgaris [7]): 50 µg/mL (≈ 118 µM); MIC (Pseudomonas aeruginosa [10]): 50 µg/mL (≈ 118 µM); diameter of the inhibition zone (DIZ) (Proteus vulgaris [19]): 19 mm; diameter of the inhibition zone (DIZ) (Pseudomonas aeruginosa [22]): 18 mm; diameter of the inhibition zone (DIZ) (Bacillus cereus [24]): 19 mm; diameter of the inhibition zone (DIZ) (Staphylococcus aureus [25]): 18 mm
O=C(/C=C/c1ccc([N+](=O)[O-])cc1)c1ccc(Nc2cc(=O)oc3ccccc23)cc1 | 95 | 1000 (≈ 2420 µM) | 100 (≈ 242 µM) | 100 (≈ 242 µM) | 100 (≈ 242 µM) | 100 (≈ 242 µM) | 100 (≈ 242 µM) | 100 (≈ 242 µM) | 100 (≈ 242 µM) | 100 (≈ 242 µM) |  | 100 (≈ 242 µM) | 10 | 12 | <10 | 11 | 13 | 14 | 11 | <10 | growth inhibition (GI) (Proteus vulgaris [28]): inactive; growth inhibition (GI) (Bacillus cereus [31]): inactive; growth inhibition (GI) (Pseudomonas aeruginosa [29]): inactive; diameter of the inhibition zone (DIZ) (Staphylococcus aureus [25]): <10 mm
